Where “and” joins values, the source holds several entries; their conditions need not be identical. Equal entries are not always repeated. Entries after “also recorded” stand apart in the source; their conditions may differ. Where two headings read alike, the source gives them in different places.
Columns and labels:
human FAAH (hFAAH) = target: T1, human FAAH (hFAAH) (Homo sapiens, UniProt O00519); assay: FAAH enzyme inhibition assay (Cayman inhibitor screening kit, AMC-arachidonoyl amide, fluorescence); assay type: biochemical; conditions: for FAAH inhibitory activity (in words): in vitro, up to 100 μM
T1 construct: purchased Cayman Item # 10005196
T1 sequence (O00519 1-579): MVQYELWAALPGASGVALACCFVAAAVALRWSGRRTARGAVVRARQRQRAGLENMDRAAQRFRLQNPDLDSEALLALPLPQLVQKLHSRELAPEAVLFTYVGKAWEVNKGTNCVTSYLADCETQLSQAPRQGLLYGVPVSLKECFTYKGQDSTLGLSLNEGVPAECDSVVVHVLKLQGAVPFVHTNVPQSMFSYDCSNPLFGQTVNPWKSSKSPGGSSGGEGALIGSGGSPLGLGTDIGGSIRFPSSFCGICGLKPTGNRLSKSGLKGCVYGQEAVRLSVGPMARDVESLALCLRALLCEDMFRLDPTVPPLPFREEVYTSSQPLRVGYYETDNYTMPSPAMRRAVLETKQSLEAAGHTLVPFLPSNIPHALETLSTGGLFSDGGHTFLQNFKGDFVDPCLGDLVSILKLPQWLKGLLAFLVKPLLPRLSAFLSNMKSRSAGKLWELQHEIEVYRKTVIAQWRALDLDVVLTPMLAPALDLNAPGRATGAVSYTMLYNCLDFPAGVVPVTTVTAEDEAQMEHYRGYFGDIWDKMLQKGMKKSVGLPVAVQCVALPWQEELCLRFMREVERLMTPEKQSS
Description: The manufacturer’s protocol was followed to perform the assay. […] AMC-Arachidonoyl amide, at a concentration of 400 μM, was then used as the FAAH substrate. The samples were mixed for 30 s and incubated at 37 °C for 30 min.

human MAGL (hMAGL) = target: T2, human MAGL (hMAGL) (Homo sapiens, UniProt Q99685); assay: MAGL enzyme inhibition assay (4-nitrophenylacetate hydrolysis, absorbance 405 nm); assay type: biochemical; conditions: for MAGL inhibitory activity (in words): in vitro; for decrease of MAGL inhibitory activity: relative to the parent compound as worded in the text (disulfiram for 2c, 2d; para substitution of 2h for 2k); on IC50 (µM) ± SE (hMAGL): 250 µM 4-nitrophenylacetate
T2 construct: purchased Reaction Biology Corp
T2 sequence (Q99685 1-303): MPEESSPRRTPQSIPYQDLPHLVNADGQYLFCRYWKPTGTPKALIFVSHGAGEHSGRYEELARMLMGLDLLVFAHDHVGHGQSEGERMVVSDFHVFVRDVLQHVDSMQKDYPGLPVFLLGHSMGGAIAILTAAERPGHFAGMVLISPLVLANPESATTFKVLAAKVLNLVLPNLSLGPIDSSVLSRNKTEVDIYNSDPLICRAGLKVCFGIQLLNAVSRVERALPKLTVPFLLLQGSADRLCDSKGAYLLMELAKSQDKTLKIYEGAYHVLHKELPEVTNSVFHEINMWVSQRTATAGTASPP
Description: All of the tested compounds were prepared as 10 mM stock solutions in DMSO. […] The plate was mixed for 30 s and incubated at room temperature for 30 min.

[1] = 10-dose IC50 mode, 3-fold serial dilution, top 100 μM (JZL195 5 μM), 400 μM AMC-arachidonoyl amide, 37 °C 30 min, average of at least two experiments ± SE
[2] = read-out: IC50 (µM) ± SE (hMAGL)
[3] = read-out: IC50 (µM) ± SE (hFAAH)

IC50 (human FAAH (hFAAH); [1]) [µM]	FAAH inhibitory activity (in words) (human FAAH (hFAAH))	IC50 (human MAGL (hMAGL); [2]) [µM]	IC50 (human FAAH (hFAAH); [3])	Structure (SMILES)	also measured
> 100	devoid of anti-FAAH activity	5.53 ± 2.62	–	CCN(Cc1ccccc1)C(=S)SSC(=S)N(CC)Cc1ccccc1 [2h]	–
–	–	0.87 ± 0.21	12.8 ± 1.57 µM	CCN(CCC(=O)O)C(=S)SSC(=S)N(CC)CCC(=O)O [2f]	–
–	–	3.53 ± 1.32	10 ± 0.68 µM	CCOC(=O)CCN(CC)C(=S)SSC(=S)N(CC)CCC(=O)OCC [2g, Bis(N-ethoxycarbonylethylethylthiocarbamoyl)disulphide]	MAGL inhibitory activity (in words) (human MAGL (hMAGL)): low micromolar range
–	–	3.71 ± 1.28	38.3 ± 7.96 µM	CCN(Cc1ccc(O)cc1)C(=S)SSC(=S)N(CC)Cc1ccc(O)cc1 [2j]	–
> 100	devoid of anti-FAAH activity	5.03 ± 2.35	–	CCOC(=O)c1ccc(CN(CC)C(=S)SSC(=S)N(CC)Cc2ccc(C(=O)OCC)cc2)cc1 [2l, Bis(N-4-ethoxycarbonylbenzylethylthiocarbamoyl)disulphide]	–
> 100	no inhibition	13.4 ± 4.79	–	CC(C)CN(CC(C)C)C(=S)SSC(=S)N(CC(C)C)CC(C)C [2d]	hydrolytic activity of MAGL inhibited by the compound upon addition of dithiothreitol (reversibility of inhibition) (human MAGL (hMAGL); absence vs presence of dithiothreitol 10 mM): restored; decrease of MAGL inhibitory activity (human MAGL (hMAGL)): up to 15 fold
–	–	0.95 ± 0.26	36 µM and 36.2 µM	CCN(CC)C(=S)SSC(=S)N(CC)CC [2a, Disulfiram, reference compound]	–
> 100	no inhibition	7.14 ± 0.21	–	CCCCN(CCCC)C(=S)SSC(=S)N(CCCC)CCCC [2c]	decrease of MAGL inhibitory activity (human MAGL (hMAGL)): up to 15 fold
–	–	0.72 ± 0.2	25.4 ± 3.26 µM	CCN(CCO)C(=S)SSC(=S)N(CC)CCO [2e]	–
> 100	devoid of anti-FAAH activity	22.6 ± 16.8	–	CCN(Cc1ccc(C(=O)O)cc1)C(=S)SSC(=S)N(CC)Cc1ccc(C(=O)O)cc1 [2k]	–
> 100	–	1.89 ± 0.37	–	CC(C)N(C(=S)SSC(=S)N(C(C)C)C(C)C)C(C)C [2b]	–

Structure (SMILES)	IC50 (human FAAH (hFAAH); [1]) [µM]	FAAH inhibitory activity (in words) (human FAAH (hFAAH))	IC50 (human MAGL (hMAGL); [2]) [µM]	IC50 (human FAAH (hFAAH); [3])	also measured
S=C(SSC(=S)N(Cc1ccccc1)Cc1ccccc1)N(Cc1ccccc1)Cc1ccccc1 [2m]	> 100	complete loss of FAAH inhibitory activity	–	–	IC50 (human MAGL (hMAGL)): 3.58 ± 0.95 µM
CCN(Cc1ccc(F)cc1)C(=S)SSC(=S)N(CC)Cc1ccc(F)cc1 [2i]	> 100	devoid of anti-FAAH activity; also recorded: did not show any inhibitory activity	3.58 ± 1.54	–	MAGL inhibitory activity (in words) (human MAGL (hMAGL)): low micromolar range
O=C(Oc1ccc([N+](=O)[O-])cc1)N1CCN(Cc2cccc(Oc3ccccc3)c2)CC1 [JZL-195, reference compound]	0.04 ± 0.02	–	–	–	–
